# Where “and” joins values, the source holds several entries; their conditions need not be identical. Identical values can stand only once.
# Tested on: 996289-038-R-J1-PDC complex spheroid viability
# Assay: Anticancer human tumor 996289-038-R-J1-PDC patient-derived colon adenocarcinoma cell line growth inhibition [CLK]
# Details: for viability, T/C: stronger effect = lower value
# Outline: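 Multi-cell-type spheroids combined patient-derived tumor cells with HUVEC endothelial cells and human mesenchymal stem cells. Paired agents were dosed in half-log steps down from about clinical Cmax, or from 10 microM where Cmax was unknown.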
# [1] = curve of first compound, second compound 0.0316 µM
# [2] = curve of first compound, second compound 0.1 µM
# [3] = curve of first compound, second compound 0.316 µM
# [4] = curve of first compound, second compound 1 µM
# [5] = curve of first compound, second compound 3.16 µM
# [6] = curve of first compound, second compound 10 µM
# [7] = second compound 0.0316 µM, first compound 0.0316 µM
# [8] = second compound 0.0316 µM, first compound 0.1 µM
# [9] = second compound 0.0316 µM, first compound 0.316 µM
# [10] = second compound 0.0316 µM, first compound 1 µM
# [11] = second compound 0.0316 µM, first compound 3.16 µM
# [12] = second compound 0.0316 µM, first compound 10 µM
# [13] = second compound 0.1 µM, first compound 0.0316 µM
# [14] = second compound 0.1 µM, first compound 0.1 µM
# [15] = second compound 0.1 µM, first compound 0.316 µM
# [16] = second compound 0.1 µM, first compound 1 µM
# [17] = second compound 0.1 µM, first compound 3.16 µM
# [18] = second compound 0.1 µM, first compound 10 µM
# [19] = second compound 0.316 µM, first compound 0.0316 µM
# [20] = second compound 0.316 µM, first compound 0.1 µM
# [21] = second compound 0.316 µM, first compound 0.316 µM
# [22] = second compound 0.316 µM, first compound 1 µM
# [23] = second compound 0.316 µM, first compound 3.16 µM
# [24] = second compound 0.316 µM, first compound 10 µM
# [25] = second compound 1 µM, first compound 0.0316 µM
# [26] = second compound 1 µM, first compound 0.1 µM
# [27] = second compound 1 µM, first compound 0.316 µM
# [28] = second compound 1 µM, first compound 1 µM
# [29] = second compound 1 µM, first compound 3.16 µM
# [30] = second compound 1 µM, first compound 10 µM
# [31] = second compound 3.16 µM, first compound 0.0316 µM
# [32] = second compound 3.16 µM, first compound 0.1 µM
# [33] = second compound 3.16 µM, first compound 0.316 µM
# [34] = second compound 3.16 µM, first compound 1 µM
# [35] = second compound 3.16 µM, first compound 3.16 µM
# [36] = second compound 3.16 µM, first compound 10 µM
# [37] = second compound 10 µM, first compound 0.0316 µM
# [38] = second compound 10 µM, first compound 0.1 µM
# [39] = second compound 10 µM, first compound 0.316 µM
# [40] = second compound 10 µM, first compound 1 µM
# [41] = second compound 10 µM, first compound 3.16 µM
# [42] = second compound 10 µM, first compound 10 µM
# 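Note: spheroids exposed to the agents for 7 days before readout.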
compound,measurement,setting,value
COc1ccc([C@@H](O)c2cc(-c3ncnc4cc(N5CCOCC5)ccc34)c(F)cc2Cl)nn1 + CN1CCN(c2cc(C(=O)Nc3cc4cc(-c5cnn(C)c5)ccc4cn3)ccn2)CC1,IC50,[1],> 10 µM
same,IC50,[2],6.69 µM
same,IC50,[3],3.19 µM
same,IC50,[4],< 0.0316 µM
same,IC50,[5],< 0.0316 µM
same,IC50,[6],< 0.0316 µM
same,"viability, T/C",[7],93.2%
same,"viability, T/C",[8],94.8%
same,"viability, T/C",[9],91.7%
same,"viability, T/C",[10],85.7%
same,"viability, T/C",[11],76.6%
same,"viability, T/C",[12],50.2%
same,"viability, T/C",[13],85.3%
same,"viability, T/C",[14],95.1%
same,"viability, T/C",[15],87.8%
same,"viability, T/C",[16],79.8%
same,"viability, T/C",[17],67.7%
same,"viability, T/C",[18],40.8%
same,"viability, T/C",[19],61.1%
same,"viability, T/C",[20],64.8%
same,"viability, T/C",[21],61.9%
same,"viability, T/C",[22],59.8%
same,"viability, T/C",[23],49.8%
same,"viability, T/C",[24],27.1%
same,"viability, T/C",[25],3.25%
same,"viability, T/C",[26],3.83%
same,"viability, T/C",[27],3.78%
same,"viability, T/C",[28],4.19%
same,"viability, T/C",[29],3.66%
same,"viability, T/C",[30],3.61%
same,"viability, T/C",[31],1.19%
same,"viability, T/C",[32],0.85%
same,"viability, T/C",[33],1.09%
same,"viability, T/C",[34],1.26%
same,"viability, T/C",[35],2.9%
same,"viability, T/C",[36],2.02%
same,"viability, T/C",[37],0.92%
same,"viability, T/C",[38],0.41%
same,"viability, T/C",[39],1.74%
same,"viability, T/C",[40],0.52%
same,"viability, T/C",[41],0.52%
same,"viability, T/C",[42],0.65%
CC1(C)CCC(CN2CCN(c3ccc(C(=O)NS(=O)(=O)c4ccc(NCC5CCOCC5)c([N+](=O)[O-])c4)c(Oc4cnc5[nH]ccc5c4)c3)CC2)=C(c2ccc(Cl)cc2)C1 + CNC(=O)c1ccc(Nc2nc(OC3CCCC3)c3c(-c4ccc5nc(C)oc5c4)c[nH]c3n2)c(OC)c1,IC50,[1],9.12 µM
same,IC50,[2],8.96 µM
same,IC50,[3],7.56 µM
same,IC50,[4],6.26 µM
same,IC50,[5],5.76 µM
same,IC50,[6],5.18 µM
same,"viability, T/C",[7],128%
same,"viability, T/C",[8],110%
same,"viability, T/C",[9],115%
same,"viability, T/C",[10],127%
same,"viability, T/C",[11],139%
same,"viability, T/C",[12],43.5%
same,"viability, T/C",[13],125%
same,"viability, T/C",[14],123%
same,"viability, T/C",[15],138%
same,"viability, T/C",[16],119%
same,"viability, T/C",[17],134%
same,"viability, T/C",[18],41.9%
same,"viability, T/C",[19],80.2%
same,"viability, T/C",[20],82.7%
same,"viability, T/C",[21],88.7%
same,"viability, T/C",[22],90.7%
same,"viability, T/C",[23],103%
same,"viability, T/C",[24],37.5%
same,"viability, T/C",[25],67.2%
same,"viability, T/C",[26],67.7%
same,"viability, T/C",[27],74%
same,"viability, T/C",[28],74.7%
same,"viability, T/C",[29],100%
same,"viability, T/C",[30],31.6%
same,"viability, T/C",[31],65%
same,"viability, T/C",[32],61.7%
same,"viability, T/C",[33],67.1%
same,"viability, T/C",[34],70.7%
same,"viability, T/C",[35],84.1%
same,"viability, T/C",[36],32%
same,"viability, T/C",[37],61.5%
same,"viability, T/C",[38],59.1%
same,"viability, T/C",[39],61.3%
same,"viability, T/C",[40],72.7%
same,"viability, T/C",[41],81.3%
same,"viability, T/C",[42],27%
CC(CO)NC(=O)c1cc(-c2ccc(Cl)cc2)nn(-c2cnn(C)c2)c1=O (stereo unspecified),"viability, T/C",compound 0.0316 µM,104% and 103%
same,"viability, T/C",compound 0.1 µM,99.9% and 95.8%
same,"viability, T/C",compound 0.316 µM,94.6% and 96.1%
same,"viability, T/C",compound 1 µM,92.1% and 100%
same,"viability, T/C",compound 3.16 µM,103% and 92.2%
same,"viability, T/C",compound 10 µM,88.4% and 88.7%
same,IC50,curve of compound,> 10 µM
